The values below come from PMC5218480 (PLoS ONE, 2017).

The test system of this test is MV-4-11 cells. As to the kind of experiment: Gene expression microarray analysis (Affymetrix PrimeView) and GSEA. Also on record: RFU PODN (11730768_x_at) / Fold change /veh PODN (11730768_x_at) / RFU LINC00158 (11744669_a_at) / Fold change /veh LINC00158 (11744669_a_at) / RFU DUSP10 (11751237_a_at) / Fold change /veh DUSP10 (11751237_a_at) / RFU ID3 (11757404_x_at) / Fold change /veh ID3 (11757404_x_at) / RFU PLEKHG5 (11737974_s_at) / Fold change /veh PLEKHG5 (11737974_s_at) / RFU LRRC4B (11730491_at) / Fold change /veh LRRC4B (11730491_at) / RFU GIMAP4 (11747438_a_at) / Fold change /veh GIMAP4 (11747438_a_at) / RFU KRT8 (11758183_x_at) / Fold change /veh KRT8 (11758183_x_at) / RFU CNN1 (11734310_a_at) / Fold change /veh CNN1 (11734310_a_at) / RFU VPS37D (11726825_at) / Fold change /veh VPS37D (11726825_at) / RFU C10orf10 (11716522_x_at) / Fold change /veh C10orf10 (11716522_x_at) / RFU KIR2DL2 /// KIR2DL4 /// KIR2DL5A /// KIR2DL5B /// KIR2DS1 /// KIR2DS2 /// KIR2DS3 /// KIR2DS4 /// KIR3DL3 /// KIR3DL3 /// KIR3DS1 (11738374_at) / Fold change /veh KIR2DL2 /// KIR2DL4 /// KIR2DL5A /// KIR2DL5B /// KIR2DS1 /// KIR2DS2 /// KIR2DS3 /// KIR2DS4 /// KIR3DL3 /// KIR3DL3 /// KIR3DS1 (11738374_at) / RFU C1QL1 (11718748_at) / Fold change /veh C1QL1 (11718748_at) / RFU TMPRSS4 (11747572_a_at) / Fold change /veh TMPRSS4 (11747572_a_at) / RFU HAMP (11756126_x_at) / Fold change /veh HAMP (11756126_x_at) / RFU RNFT2 (11725882_a_at) / Fold change /veh RNFT2 (11725882_a_at) / RFU NR4A2 (11747474_a_at) / Fold change /veh NR4A2 (11747474_a_at) / RFU ABCC12 (11746883_a_at) / Fold change /veh ABCC12 (11746883_a_at) / RFU TMEM136 (11760407_x_at) / Fold change /veh TMEM136 (11760407_x_at) / RFU CLDN22 /// WWC2 (11732394_at) / Fold change /veh CLDN22 /// WWC2 (11732394_at) / RFU HLA-DPB1 (11760878_x_at) / Fold change /veh HLA-DPB1 (11760878_x_at) / RFU SPINT1 (11716480_a_at) / Fold change /veh SPINT1 (11716480_a_at) / RFU GAP43 (11754022_s_at) / Fold change /veh GAP43 (11754022_s_at) / RFU A4GNT (11735810_at) / Fold change /veh A4GNT (11735810_at) / RFU PRB3 (11715151_x_at) / Fold change /veh PRB3 (11715151_x_at) / RFU TUBB4B (11761932_at) / Fold change /veh TUBB4B (11761932_at) / RFU CAPN14 (11732068_a_at) / Fold change /veh CAPN14 (11732068_a_at) / RFU TMCC2 (11721928_a_at) / Fold change /veh TMCC2 (11721928_a_at) / RFU IRGQ (11745062_a_at) / Fold change /veh IRGQ (11745062_a_at) / RFU FAM174B (11720279_a_at) / Fold change /veh FAM174B (11720279_a_at) / RFU TMPRSS4 (11748680_a_at) / Fold change /veh TMPRSS4 (11748680_a_at) / RFU FAM212B (11763350_a_at) / Fold change /veh FAM212B (11763350_a_at) / RFU PLEKHG5 (11743358_a_at) / Fold change /veh PLEKHG5 (11743358_a_at) / RFU ZSCAN30 (11745921_a_at) / Fold change /veh ZSCAN30 (11745921_a_at) / RFU CMKLR1 (11741424_a_at) / Fold change /veh CMKLR1 (11741424_a_at) / RFU LOC101060620 /// MAPK8IP1 (11723275_at) / Fold change /veh LOC101060620 /// MAPK8IP1 (11723275_at) / RFU SPTSSB (11747773_x_at) / Fold change /veh SPTSSB (11747773_x_at) / RFU PRSS12 (11739890_at) / Fold change /veh PRSS12 (11739890_at) / RFU BIN1 (11741810_x_at) / Fold change /veh BIN1 (11741810_x_at) / RFU WNT11 (11732464_a_at) / Fold change /veh WNT11 (11732464_a_at) / RFU C10orf10 (11716521_a_at) / Fold change /veh C10orf10 (11716521_a_at) / RFU C5orf56 (11738089_at) / Fold change /veh C5orf56 (11738089_at) / RFU CYB561 (11721691_x_at) / Fold change /veh CYB561 (11721691_x_at) / RFU ANKRD19P (11752326_a_at) / Fold change /veh ANKRD19P (11752326_a_at) / RFU OR2T12 /// OR2T33 /// OR2T8 (11738714_s_at) / Fold change /veh OR2T12 /// OR2T33 /// OR2T8 (11738714_s_at) / RFU VCAN (11748164_a_at) / Fold change /veh VCAN (11748164_a_at) / RFU JSRP1 (11732532_at) / Fold change /veh JSRP1 (11732532_at) / RFU KRTAP10-11 (11738290_x_at) / Fold change /veh KRTAP10-11 (11738290_x_at) / RFU MYO3A (11730013_a_at) / Fold change /veh MYO3A (11730013_a_at) / RFU EBF3 (11725865_a_at) / Fold change /veh EBF3 (11725865_a_at) / RFU CAMK2N1 (11719241_x_at) / Fold change /veh CAMK2N1 (11719241_x_at) / RFU C5orf56 (11738088_a_at) / Fold change /veh C5orf56 (11738088_a_at) / RFU OLFML3 (11715873_a_at) / Fold change /veh OLFML3 (11715873_a_at) / RFU LOC100653217 /// NTM (11731650_a_at) / Fold change /veh LOC100653217 /// NTM (11731650_a_at) / RFU MAPK11 (11762145_a_at) / Fold change /veh MAPK11 (11762145_a_at) / RFU FIZ1 (11724087_x_at) / Fold change /veh FIZ1 (11724087_x_at) / RFU OASL (11726364_x_at) / Fold change /veh OASL (11726364_x_at) / RFU SOX15 (11748057_x_at) / Fold change /veh SOX15 (11748057_x_at) / RFU CD79A (11719716_a_at) / Fold change /veh CD79A (11719716_a_at) / RFU HIST1H1D (11736915_at) / Fold change /veh HIST1H1D (11736915_at) / RFU CASKIN2 (11723855_a_at) / Fold change /veh CASKIN2 (11723855_a_at) / RFU LOC730098 (11760151_x_at) / Fold change /veh LOC730098 (11760151_x_at) / RFU OR4N2 (11742367_at) / Fold change /veh OR4N2 (11742367_at) / RFU PRRT2 (11749266_a_at) / Fold change /veh PRRT2 (11749266_a_at) / RFU SNX32 (11753110_a_at) / Fold change /veh SNX32 (11753110_a_at) / RFU CDHR5 (11726645_a_at) / Fold change /veh CDHR5 (11726645_a_at) / RFU RCAN1 (11760418_a_at) / Fold change /veh RCAN1 (11760418_a_at) / RFU FAM167A (11723789_a_at) / Fold change /veh FAM167A (11723789_a_at) / RFU FAM26E (11764081_at) / Fold change /veh FAM26E (11764081_at) / RFU ISYNA1 (11749810_s_at) / Fold change /veh ISYNA1 (11749810_s_at) / RFU ACY1 (11761880_at) / Fold change /veh ACY1 (11761880_at) / RFU 11764098_at / Fold change /veh 11764098_at / RFU SAMD14 (11745864_x_at) / Fold change /veh SAMD14 (11745864_x_at) / RFU NPB (11741838_a_at) / Fold change /veh NPB (11741838_a_at) / RFU TMPRSS6 (11731388_a_at) / Fold change /veh TMPRSS6 (11731388_a_at) / RFU KRTAP10-2 (11738614_at) / Fold change /veh KRTAP10-2 (11738614_at) / RFU ARHGAP8 /// PRR5-ARHGAP8 (11727945_x_at) / Fold change /veh ARHGAP8 /// PRR5-ARHGAP8 (11727945_x_at) / RFU KRTAP5-7 /// NADSYN1 (11734609_at) / Fold change /veh KRTAP5-7 /// NADSYN1 (11734609_at) / RFU RASL12 (11751679_a_at) / Fold change /veh RASL12 (11751679_a_at) / RFU CDKN2B (11736163_a_at) / Fold change /veh CDKN2B (11736163_a_at) / RFU PRF1 (11729649_at) / Fold change /veh PRF1 (11729649_at) / RFU, ZNF638 /// ZNF638-IT1 / Fold change vs veh, ZNF638 /// ZNF638-IT1 / RFU, PANK3 / Fold change vs veh, PANK3 / RFU, SH3YL1 / Fold change vs veh, SH3YL1 / RFU, ZEB2 / Fold change vs veh, ZEB2 / RFU, NRIP1 / Fold change vs veh, NRIP1 / RFU, PTTG1IP / Fold change vs veh, PTTG1IP / RFU, CAPN2 / Fold change vs veh, CAPN2 / RFU, MED14 / Fold change vs veh, MED14 / RFU, SNORA58 / Fold change vs veh, SNORA58 / RFU, C1orf63 / Fold change vs veh, C1orf63 / RFU, LRRFIP1 / Fold change vs veh, LRRFIP1 / RFU, NDUFAF7 / Fold change vs veh, NDUFAF7 / RFU, SLC12A2 / Fold change vs veh, SLC12A2 / RFU, IBTK / Fold change vs veh, IBTK / RFU, ESF1 / Fold change vs veh, ESF1 / Fold change vs veh, TMEM50B / RFU, TAOK1 / Fold change vs veh, TAOK1 / RFU, ACBD3 / Fold change vs veh, ACBD3 / RFU, TMA16 / Fold change vs veh, TMA16 / RFU, RWDD3 / Fold change vs veh, RWDD3 / RFU, BCAT1 / Fold change vs veh, BCAT1 / RFU, EDEM3 / Fold change vs veh, EDEM3 / RFU, TMEM33 / Fold change vs veh, TMEM33 / RFU, WDR75 / Fold change vs veh, WDR75 / RFU, AHCTF1 / Fold change vs veh, AHCTF1 / RFU, TFRC / Fold change vs veh, TFRC / RFU, ZDHHC17 / Fold change vs veh, ZDHHC17 / RFU, NOM1 / Fold change vs veh, NOM1 / RFU, ARL8B / Fold change vs veh, ARL8B / RFU, ZBTB11 / Fold change vs veh, ZBTB11 / RFU, TAMM41 / Fold change vs veh, TAMM41 / RFU, KIAA1704 /// LOC100996395 / Fold change vs veh, KIAA1704 /// LOC100996395 / RFU, ING1 / Fold change vs veh, ING1 / RFU, TRMT61B / Fold change vs veh, TRMT61B / RFU, FUBP3 / Fold change vs veh, FUBP3 / RFU, TP53 / Fold change vs veh, TP53 / RFU, TNKS2 / Fold change vs veh, TNKS2 / RFU, ZFP14 / Fold change vs veh, ZFP14 / RFU, ACTR2 / Fold change vs veh, ACTR2 / RFU, PPP3R1 / Fold change vs veh, PPP3R1 / RFU, PIK3R1 / Fold change vs veh, PIK3R1 / RFU, HNRNPA1 / Fold change vs veh, HNRNPA1 / RFU, RNF170 / Fold change vs veh, RNF170 / RFU, ZNF28 / Fold change vs veh, ZNF28 / RFU, RNGTT / Fold change vs veh, RNGTT / RFU, OGT / Fold change vs veh, OGT / RFU, BRD1 / Fold change vs veh, BRD1 / RFU, MARS / Fold change vs veh, MARS / RFU, ZNF655 / Fold change vs veh, ZNF655 / RFU, FAHD1 / Fold change vs veh, FAHD1 / RFU, BDP1 / Fold change vs veh, BDP1 / RFU, LRRCC1 / Fold change vs veh, LRRCC1 / RFU, ARID1A / Fold change vs veh, ARID1A / RFU, ZNF146 / Fold change vs veh, ZNF146 / RFU, ZNF330 / Fold change vs veh, ZNF330 / RFU, GPN3 / Fold change vs veh, GPN3 / RFU, C9orf123 / Fold change vs veh, C9orf123 / RFU, N4BP2L2 / Fold change vs veh, N4BP2L2 / RFU, ARFIP1 / Fold change vs veh, ARFIP1 / RFU, FAM179B / Fold change vs veh, FAM179B / RFU, BCL10 / Fold change vs veh, BCL10 / RFU, UHRF1BP1L / Fold change vs veh, UHRF1BP1L / RFU, BET1 / Fold change vs veh, BET1 / RFU, CNOT2 / Fold change vs veh, CNOT2 / RFU, ZNF268 / Fold change vs veh, ZNF268 / Fold change vs veh, ZNF507 / RFU, DGCR2 / Fold change vs veh, DGCR2 / RFU, WDSUB1 / Fold change vs veh, WDSUB1 / Fold change vs veh, HSP90B1 /// MIR3652 / RFU, ADSS / Fold change vs veh, ADSS / RFU, GK / Fold change vs veh, GK / RFU, ZNF148 / Fold change vs veh, ZNF148 / RFU, TAF9 / Fold change vs veh, TAF9 / RFU, SLC1A5 / Fold change vs veh, SLC1A5 / RFU, SLMO2 / Fold change vs veh, SLMO2 / RFU, ABCC4 / Fold change vs veh, ABCC4 / RFU, LOC101060439 /// RAP1B / Fold change vs veh, LOC101060439 /// RAP1B / RFU, RFX7 / Fold change vs veh, RFX7 / RFU, GTPBP10 / Fold change vs veh, GTPBP10 / RFU, CNEP1R1 / Fold change vs veh, CNEP1R1 / RFU, BIVM-ERCC5 /// ERCC5 / Fold change vs veh, BIVM-ERCC5 /// ERCC5 / RFU, ILF3 / Fold change vs veh, ILF3 / RFU 11762660_at / Fold change /veh 11762660_at / RFU VCAN (11757783_s_at) / Fold change /veh VCAN (11757783_s_at) / RFU DDX43 (11728927_at) / Fold change /veh DDX43 (11728927_at) / RFU KRT8 (11758188_x_at) / Fold change /veh KRT8 (11758188_x_at) / RFU NKD1 (11759106_at) / Fold change /veh NKD1 (11759106_at) / RFU SRD5A1 (11742802_a_at) / Fold change /veh SRD5A1 (11742802_a_at) / RFU TPSAB1 /// TPSB2 (11721975_s_at) / Fold change /veh TPSAB1 /// TPSB2 (11721975_s_at) / RFU GSTM3 (11746129_a_at) / Fold change /veh GSTM3 (11746129_a_at) / RFU IL23R (11737362_x_at) / Fold change /veh IL23R (11737362_x_at) / RFU TMEM51 (11727254_a_at) / Fold change /veh TMEM51 (11727254_a_at) / RFU PIWIL2 (11732686_x_at) / Fold change /veh PIWIL2 (11732686_x_at) / RFU ORM1 (11744905_x_at) / Fold change /veh ORM1 (11744905_x_at) / RFU CCDC152 (11743942_at) / Fold change /veh CCDC152 (11743942_at) / RFU ECM1 (11717891_a_at) / Fold change /veh ECM1 (11717891_a_at) / RFU IL23R (11748794_a_at) / Fold change /veh IL23R (11748794_a_at) / RFU TNFAIP8L3 (11732012_x_at) / Fold change /veh TNFAIP8L3 (11732012_x_at) / RFU MBOAT4 (11741988_at) / Fold change /veh MBOAT4 (11741988_at) / RFU 11764193_at / Fold change /veh 11764193_at / RFU TMEM53 (11763286_at) / Fold change /veh TMEM53 (11763286_at) / RFU MAGEB2 (11727129_at) / Fold change /veh MAGEB2 (11727129_at) / RFU TMEM200A (11744735_a_at) / Fold change /veh TMEM200A (11744735_a_at) / RFU CCDC152 (11751479_a_at) / Fold change /veh CCDC152 (11751479_a_at) / RFU FAM211A (11726209_a_at) / Fold change /veh FAM211A (11726209_a_at) / RFU RGS16 (11746705_a_at) / Fold change /veh RGS16 (11746705_a_at) / RFU VCAN (11755009_s_at) / Fold change /veh VCAN (11755009_s_at) / RFU RHOB (11743442_s_at) / Fold change /veh RHOB (11743442_s_at) / RFU RGS16 (11720943_a_at) / Fold change /veh RGS16 (11720943_a_at) / RFU RGS16 (11720944_at) / Fold change /veh RGS16 (11720944_at) / RFU, VPS4B / Fold change vs veh, VPS4B / RFU, CREB1 / Fold change vs veh, CREB1 / RFU, DNAJC13 / Fold change vs veh, DNAJC13 / RFU, GNAQ / Fold change vs veh, GNAQ / RFU, CDK5R1 / Fold change vs veh, CDK5R1 / RFU, ZRANB3 / Fold change vs veh, ZRANB3 / RFU, CUL4A / Fold change vs veh, CUL4A / RFU, CCNY / Fold change vs veh, CCNY / RFU, UFL1 / Fold change vs veh, UFL1 / RFU, COG3 / Fold change vs veh, COG3 / RFU, DIAPH2 / Fold change vs veh, DIAPH2 / RFU, SKA2 / Fold change vs veh, SKA2 / RFU, AFF3 / Fold change vs veh, AFF3 / RFU, LMF1 / Fold change vs veh, LMF1 / RFU, IPO11 / Fold change vs veh, IPO11 / RFU, DFFB / Fold change vs veh, DFFB / RFU, FOXP1 / Fold change vs veh, FOXP1 / RFU, CARD8 / Fold change vs veh, CARD8 / RFU, STRN3 / Fold change vs veh, STRN3 / RFU, ADK / Fold change vs veh, ADK / RFU, RASSF2 / Fold change vs veh, RASSF2 / RFU, WIPF1 / Fold change vs veh, WIPF1 / RFU, LARP1B / Fold change vs veh, LARP1B / RFU, RASA1 / Fold change vs veh, RASA1 / RFU, RB1 / Fold change vs veh, RB1 / RFU, PPFIA1 / Fold change vs veh, PPFIA1 / RFU, MAT2A / Fold change vs veh, MAT2A / RFU, CCT5 / Fold change vs veh, CCT5 / RFU, WDR92 / Fold change vs veh, WDR92 / RFU, CUX1 / Fold change vs veh, CUX1 / RFU, TTC7A / Fold change vs veh, TTC7A / RFU, TMEM135 / Fold change vs veh, TMEM135 / RFU, DEPTOR / Fold change vs veh, DEPTOR / RFU, CPM / Fold change vs veh, CPM / RFU, DNAJB6 / Fold change vs veh, DNAJB6 / RFU, CACNA2D3 / Fold change vs veh, CACNA2D3 / RFU, DTX4 / Fold change vs veh, DTX4 / RFU, TFCP2 / Fold change vs veh, TFCP2 / RFU, GMCL1 /// GMCL1P1 / Fold change vs veh, GMCL1 /// GMCL1P1 / RFU, AEBP2 / Fold change vs veh, AEBP2 / RFU, SNHG1 /// SNORD22 /// SNORD25 /// SNORD26 /// SNORD27 /// SNORD28 /// SNORD29 /// SNORD31 / Fold change vs veh, SNHG1 /// SNORD22 /// SNORD25 /// SNORD26 /// SNORD27 /// SNORD28 /// SNORD29 /// SNORD31 / Fold change (Aza/veh), C12orf56 (ProbeSet 11735607_a_at) / Fold change (ACY-1035/veh), C12orf56 (ProbeSet 11735607_a_at) / Fold change (Aza/veh), FGFR1OP (ProbeSet 11751329_s_at) / Fold change (ACY-1035/veh), FGFR1OP (ProbeSet 11751329_s_at) / Fold change (Aza/veh), VPS36 (ProbeSet 11739960_a_at) / Fold change (ACY-1035/veh), VPS36 (ProbeSet 11739960_a_at) / RFU SYPL1 (11715823_x_at) / Fold change /veh SYPL1 (11715823_x_at) / RFU IGFBP7 (11715501_s_at) / Fold change /veh IGFBP7 (11715501_s_at) / RFU REEP3 (11722064_at) / Fold change /veh REEP3 (11722064_at) / RFU IGLL1 (11728026_x_at) / Fold change /veh IGLL1 (11728026_x_at): dose or concentration left out as unconfirmed. The class given is cell-based, human. To be noted: ProbeSet 11757113_a_at; LIST D.

As for `Nc1ccc(-c2cccs2)cc1NC(=O)c1ccc2c(c1)cc(C1CC1)n2CCN1CCOCC1` [ACY-1035], the “Fold change vs veh, SNHG1 /// SNORD22 /// SNORD25 /// SNORD26 /// SNORD27 /// SNORD28 /// SNORD29 /// SNORD31” value turned out to be 0.87.
